The values that follow come from patent US7338959B2, “Diamino-pyrimidines and their use as angiogenesis inhibitors” (SmithKline Beecham Corporation, priority 2002, dated 2008).

One assay has as its target T1, GST-VEGFR2 (Homo sapiens, UniProt P35968).
T1 construct: baculovirus expressed recombinant constructs of the intracellular domains of human TIE2 tagged by GST; made in house
Nature of the assay: VEGF-R2 enzyme assay (VEGF-E), LANCE method. Type of assay: biochemical. To be noted: GST-VEGFR2, 75 uM ATP, biotinylated peptide. From the text:
VEGF-R2 Enzyme Assay (VEGF-E)
The VEGF enzyme assay used the LANCE method (Wallac) and GST-VEGFR2, baculovirus expressed recombinant constructs of the intracellular domains of human TIE2 tagged by GST. The method measured the ability of the purified enzymes to catalyse the transfer of the γ-phosphate from ATP onto tyrosine residues in a biotinylated synthetic peptide, (biotin-aminohexyl-EEEEYFELVAKKKK-NH2). This peptide phosphorylation was detected using the following procedure: GST-VEGFR2 was incubated for 40-60 mins at room temperature with 75 uM ATP, 5 mM MgCl2, 0.1 mM DTT, 0.1 mg/mL BSA and the test compound (diluted from a 10 mM stock in DMSO for desired concentration) in 100 mM HEPES buffer. The reaction was stopped by the addition of EDTA (final concentration 50 mM). Streptavidin linked-APC (allophycocyanin, Molecular Probe) and Europium-labeled anti-phosphorylated tyrosine antibody (Wallac) were then added at the final concentration of 15 nM and 1 nM, respectively. The APC signal was measured using an ARVO multilabel counter (Wallac Berthold, Japan). The percent inhibition of activity was calculated relative to blank control wells. The concentration of test compound that inhibits 50% of activity (IC50) was interpolated using nonlinear regression (Levernberg-Marquardt) and the equation, y=Vmax (1−x/(K+x))+Y2, where “K” was equal to the IC50. The IC50 values were converted to pIC50 values, i.e., −log IC50 in Molar concentration.
(In general: Time-resolved FRET reads energy transfer from a long-lived donor to a nearby acceptor.)

A further assay concerns the target Recombinant GST-Tie2 (Homo sapiens, UniProt Q02763). The experiment in a line: Tie2 fluorescence polarization kinase activity assay (TIE2-FP). Type of assay: biochemical. To be noted: activated Tie2, 200 μM ATP, peptide substrate. As to the method:
Tie2 Fluorescence Polarization Kinase Activity Assay: (TIE2-FP)
Activation of Recombinant Tie2 Activation:
Recombinant GST-Tie2 was activated by incubating the enzyme in 20 mM Tris-HCl, pH 7.5, 12 mM MgCl2, 100 mM NaCl, 20 μM sodium vanidate, 1 mM DTT and 300 μM ATP at room temperature for 2 hours. The activation mixture was then passed through a NAP-25 desalting column (Pharmacia Biotech cat. no. 17-0852-02) to remove the free ATP. The activated enzyme was stored as aliquots at −80° C. in 20 mM Tris-HCl, pH 7.5 and 100 mM NaCl.
The final assay conditions were 50 mM HEPES, pH 7.5, 5% DMSO (when screening compounds), 200 μM ATP, 5 mM MgCl2, 1 mM DTT, 50 μM sodium vanidate, 1 nM activated enzyme, and 200 μM peptide. IC50's of compounds were measured under subsaturating ATP (200 μM) and varing concentrations of activated Tie2 and peptide substrate (RFWKYEFWR-OH; MW 1873 Da, TFA salt). Panvera Anti-phosphotyrosine antibody (Cat#P2840) and PTK Green Tracer (Cat#P2842) were used to detect the phosphorylated peptide. Polarization was measured on a TECAN Polarion in 138-second cycles for 30 minutes at room temperature. IC50's were then determined from the % polarization using normal calculation methods.
A general note: In fluorescence polarisation assays a small probe gives low polarisation when free and higher when bound to something large.

Counter-ions that a name gives are not always drawn.

Chain of Recombinant GST-Tie2 (Q02763 23-1124): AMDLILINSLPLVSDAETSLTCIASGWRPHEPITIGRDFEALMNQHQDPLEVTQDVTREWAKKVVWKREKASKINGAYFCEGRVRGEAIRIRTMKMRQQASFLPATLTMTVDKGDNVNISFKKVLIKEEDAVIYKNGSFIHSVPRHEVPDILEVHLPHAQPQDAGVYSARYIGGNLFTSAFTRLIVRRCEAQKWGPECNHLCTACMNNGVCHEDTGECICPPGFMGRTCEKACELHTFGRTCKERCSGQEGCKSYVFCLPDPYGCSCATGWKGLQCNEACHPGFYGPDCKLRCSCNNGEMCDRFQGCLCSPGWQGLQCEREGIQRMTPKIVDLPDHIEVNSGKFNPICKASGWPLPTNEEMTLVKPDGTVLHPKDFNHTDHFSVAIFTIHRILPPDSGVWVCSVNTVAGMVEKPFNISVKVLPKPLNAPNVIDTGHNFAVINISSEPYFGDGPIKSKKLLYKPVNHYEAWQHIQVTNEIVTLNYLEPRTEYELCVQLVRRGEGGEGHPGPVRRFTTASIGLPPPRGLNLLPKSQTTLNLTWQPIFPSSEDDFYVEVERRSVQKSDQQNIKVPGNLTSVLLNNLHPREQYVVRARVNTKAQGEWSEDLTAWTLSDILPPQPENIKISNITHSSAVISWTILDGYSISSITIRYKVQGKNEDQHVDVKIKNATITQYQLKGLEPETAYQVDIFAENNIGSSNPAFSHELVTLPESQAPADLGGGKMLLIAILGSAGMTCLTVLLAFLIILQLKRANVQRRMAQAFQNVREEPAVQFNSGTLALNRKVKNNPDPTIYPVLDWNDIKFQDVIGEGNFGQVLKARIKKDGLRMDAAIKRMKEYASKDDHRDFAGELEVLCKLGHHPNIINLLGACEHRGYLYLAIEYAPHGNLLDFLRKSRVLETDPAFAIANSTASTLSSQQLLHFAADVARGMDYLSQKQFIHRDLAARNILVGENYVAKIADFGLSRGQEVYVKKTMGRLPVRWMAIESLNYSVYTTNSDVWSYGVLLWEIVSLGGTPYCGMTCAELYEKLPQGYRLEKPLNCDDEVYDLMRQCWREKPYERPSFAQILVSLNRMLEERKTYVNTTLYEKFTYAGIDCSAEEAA
T1 sequence (P35968 786-1356 limits assumed): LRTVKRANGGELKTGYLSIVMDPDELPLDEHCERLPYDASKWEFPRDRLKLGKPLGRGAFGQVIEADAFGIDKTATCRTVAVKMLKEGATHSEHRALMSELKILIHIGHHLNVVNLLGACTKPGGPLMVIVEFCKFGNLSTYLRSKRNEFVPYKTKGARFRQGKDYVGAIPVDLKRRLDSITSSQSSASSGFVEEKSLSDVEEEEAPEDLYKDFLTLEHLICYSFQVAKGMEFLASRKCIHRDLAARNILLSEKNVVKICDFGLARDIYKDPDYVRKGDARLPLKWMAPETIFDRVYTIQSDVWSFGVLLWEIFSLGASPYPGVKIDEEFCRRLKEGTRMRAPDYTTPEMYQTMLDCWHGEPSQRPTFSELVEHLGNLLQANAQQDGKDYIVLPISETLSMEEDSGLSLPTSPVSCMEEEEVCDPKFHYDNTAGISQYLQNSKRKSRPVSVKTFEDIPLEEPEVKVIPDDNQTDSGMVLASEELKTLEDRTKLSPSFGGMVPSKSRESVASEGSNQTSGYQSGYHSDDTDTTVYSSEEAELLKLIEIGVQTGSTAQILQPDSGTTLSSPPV

With `CN(c1ccc2c(c1)nc(NCc1ccc(F)cc1)n2C)c1ccnc(Nc2cccc(S(N)(=O)=O)c2)n1` [Example 11, 3-(4-{[2-(4-Fluoro-benzylamino)-1-methyl-1H-benzoimidazol-5-yl]-methyl-amino}-pyrimidin-2-ylamino)-benzenesulfonamide hydrochloride], the half-inhibitory concentration (IC50) against GST-VEGFR2 is < 0.1 µM.
Same read-out and setting: next, `CNS(=O)(=O)CCc1ccc(Nc2nccc(N(C)c3ccc4c(c3)nc(NC(C)C)n4C)n2)cc1` [Example 90, 2-(4-{4-[(2-Isopropylamino-1-methyl-1H-benzoimidazol-5-yl)-methyl-amino]-pyrimidin-2-ylamino}-phenyl)-ethanesulfonic acid methylamide hydrochloride]: < 0.1 µM.
For the molecule `CC(C)Nc1nc2cc(N(C)c3ccnc(Nc4cccc(OS(C)(=O)=O)c4)n3)ccc2n1C` [Example 92, hydrochloride], the 50% inhibitory concentration (IC50) fell in the range of 1 to 10 µM at Recombinant GST-Tie2 and 0.1 to 1 µM against GST-VEGFR2.
The corresponding values for `Cc1ccc(Nc2nccc(N(C)c3ccc4c(c3)nc(NCCc3ccccc3)n4C)n2)cc1S(N)(=O)=O` [Example 95, 2-Methyl-5-{4-[methyl-(1-methyl-2-phenethylamino-1H-benzoimidazol-5-yl)-amino]-pyrimidin-2-ylamino}-benzenesulfonamide hydrochloride] are 0.1 to 1 µM and < 0.1 µM.
Taken in the same sequence, the figures for `CN(c1ccc2c(c1)nc(Nc1ccc(C(F)(F)F)cc1)n2C)c1ccnc(Nc2ccc(CS(C)(=O)=O)cc2)n1` [Example 110, N^1-Methyl-N^5-[2-(4-Methanesulfonymethyl-phenylamino)-pyrimidin-4-yl]-N^5-methyl-N^2-(4-trifluoromethyl-phenyl)-1H-benzoimidazole-2,5-diamine] were < 0.1 µM and < 0.1 µM.
On to `CN(c1ccc2c(c1)nc(Nc1ccc(Cl)cc1)n2C)c1ccnc(Nc2ccc(CS(C)(=O)=O)cc2)n1` [Example 112], for which the half-maximal inhibitory concentration (IC50) on Recombinant GST-Tie2 and at GST-VEGFR2 was < 0.1 µM throughout.
For the molecule `CN(c1ccc2c(c1)nc(Nc1cccc(F)c1)n2C)c1ccnc(Nc2ccc(CS(C)(=O)=O)cc2)n1` [Example 118], the IC50 at Recombinant GST-Tie2 was 0.1 to 1 µM; at GST-VEGFR2, < 0.1 µM.
For the molecule `CN(c1ccc2c(c1)nc(Nc1ccccc1F)n2C)c1ccnc(Nc2ccc(CS(C)(=O)=O)cc2)n1` [Example 124], the concentration for half-maximal inhibition (IC50) at Recombinant GST-Tie2 was 0.1 to 1 µM; against GST-VEGFR2 it was < 0.1 µM.
Taken in the same sequence, the figures for `CN(c1ccc2c(c1)nc(Nc1cc(C(F)(F)F)ccc1F)n2C)c1ccnc(Nc2ccc(CS(C)(=O)=O)cc2)n1` [Example 125] were < 0.1 µM and < 0.1 µM.
Consider `Cn1c(Nc2cc(C(C)(C)C)on2)nc2cc(Nc3ccnc(Nc4ccc(CS(C)(=O)=O)cc4)n3)ccc21.O=C(O)C(F)(F)F` [Example 135, N^2-(5-tert-Butyl-isoxazol-3-yl)-N^5-[2-(4-methanesulfonylmethyl-phenylamino)-pyrimidin-4-yl]-1-methyl-1-1H-benzoimidazole-2,5-diamine trifluoroacetate], for which the TIE2-FP entry on Recombinant GST-Tie2 is reported as “+ (+ = pIC50 of 5.0-6.0)”. For the same molecule, the VEGF-E entry on GST-VEGFR2 is reported as “+++ (+++ = pIC50 of >7.0)”.
Turning to `Cn1c(Nc2cc(C(C)(C)C)on2)nc2cc(Nc3ccnc(Nc4cccc(CS(C)(=O)=O)c4)n3)ccc21` [Example 136, N^2-(5-tert-Butyl-isoxazol-3-yl)-N^5-[2-(3-methanesulfonylmethyl-phenylamino)-pyrimidin-4-yl]-1-methyl-1H-benzoimidazole-2,5-diamine], the half-maximal inhibitory concentration (IC50) on Recombinant GST-Tie2 was 1 to 10 µM; on GST-VEGFR2 it was < 0.1 µM.
As to `CN(c1ccc2c(c1)nc(NC(=O)Nc1ccccc1)n2C)c1ccnc(Nc2ccc(CS(C)(=O)=O)cc2)n1` [Example 142, N-(1-methyl-5-{methyl[2-({4-[(methylsulfonyl)methyl]phenyl}amino)pyrimidin-4-yl]amino}-1H-benzimidazol-2-yl)-N′-phenylurea], the IC50 at GST-VEGFR2 is < 0.1 µM.
Regarding `CN(c1ccc2c(c1)nc(NC(=O)Cc1cccs1)n2C)c1ccnc(Nc2ccc(CS(C)(=O)=O)cc2)n1` [Example 153], the IC50 on Recombinant GST-Tie2 was 1 to 10 µM; against GST-VEGFR2, < 0.1 µM.
As to `CN(c1ccc2c(c1)nc(NC(=O)C1CCCCC1)n2C)c1ccnc(Nc2cccc(CS(C)(=O)=O)c2)n1` [Example 157, Cyclohexanecarboxylic acid ({[2-(3-methanesulfonylmethyl-phenylamino)-pyrimidin-4-yl]-methyl-amino}-methyl-1H-benzoimidazol-2-yl)-amide], on GST-VEGFR2, the VEGF-E entry is reported as “+++ (+++ = pIC50 of >7.0)”.
Take `CN(c1ccc2c(c1)nc(NC(=O)Cc1cccc(SC(F)(F)F)c1)n2C)c1ccnc(Nc2cccc(CS(C)(=O)=O)c2)n1` [Example 162, N-(5-{[2-(3-Methanesulfonylmethyl-phenylamino)-pyrimidin-4-yl]-methyl-amino}-1-methyl-1H-benzoimidazol-2-yl)-2-(3-trifluoromethylsulfanyl-phenyl)-acetamide]: the values for the half-inhibitory concentration (IC50) on Recombinant GST-Tie2 and against GST-VEGFR2 were 1 to 10 µM and < 0.1 µM, respectively.
The corresponding values for `CN(c1ccc2c(c1)nc(NC(=O)Cc1cccs1)n2C)c1ccnc(Nc2cccc(CS(C)(=O)=O)c2)n1` [Example 169, N-({[2-(3-Methanesulfonylmethyl-phenylamino)-pyrimidin-4-yl]-methyl-amino}-methyl-1H-benzoimidazol-2-yl)-C-thiophen-2-yl-acetamide] are 1 to 10 µM and < 0.1 µM.
With `Cc1cc(CC(=O)Nc2nc3cc(N(C)c4ccnc(Nc5ccc(CS(C)(=O)=O)cc5)n4)ccc3n2C)on1` [Example 173, N-({[2-(4-Methanesulfonylmethyl-phenylamino)-pyrimidin-4-yl]-methyl-amino}-methyl-1H-benzoimidazol-2-yl)-2-(3-methyl-isoxazol-5-yl)-acetamide], the TIE2-FP result at Recombinant GST-Tie2 is given as “+ (+ = pIC50 of 5.0-6.0)”. For the same molecule, at GST-VEGFR2, the VEGF-E entry is listed as “+++ (+++ = pIC50 of >7.0)”.
With `CN(c1ccc2c(c1)nc(NC(=O)Cc1ccccc1)n2C)c1ccnc(Nc2ccc(CS(C)(=O)=O)cc2)n1` [Example 202, Phenyl-N-({[2-(4-methanesulfonylmethyl-phenylamino)-pyrimidin-4-yl]-methyl-amino}-methyl-1H-benzoimidazol-2-yl)-acetamide], at GST-VEGFR2, the IC50 is < 0.1 µM.
On the same count and under the same terms, next, `COc1cccc(CC(=O)Nc2nc3cc(N(C)c4ccnc(Nc5ccc(CS(C)(=O)=O)cc5)n4)ccc3n2C)c1OC` [Example 219, 2-(2,3-Dimethoxyphenyl)-N-(5-{[2-(4-methanesulfonylmethyl-phenylamino)-pyrimidin-4-yl]-methyl-amino}-1-methyl-1H-benzoimidazol-2-yl)-acetamide]: < 0.1 µM; `CN(c1ccc2c(c1)nc(NC(=O)Cc1ccc3c(c1)OCO3)n2C)c1ccnc(Nc2ccc(CS(C)(=O)=O)cc2)n1` [Example 239, Benzo[1,3]dioxol-5-yl-N-({[2-(4-methanesulfonylmethyl-phenylamino)-pyrimidin-4-yl]-methyl-amino}-methyl-1H-benzoimidazol-2-yl)-acetamide]: 0.1 to 1 µM.
“N-({[2-(3-methanesulfonylmethyl-phenylamino)-pyrimidin-4-yl]-methyl-amino}-methyl-1H-benzoimidazol-2-yl)-3,5-bis-trifluoromethyl-benzamide [Example 156]”: at GST-VEGFR2, the VEGF-E entry was “++ (++ = pIC50 of 6.0-7.0)”.

The IC50 is the concentration that gives 50% inhibition.
